{
  "source": "patent US20090023773A1",
  "about": "“COMPOSITIONS AND METHODS FOR MODULATING GATED ION CHANNELS” (PainCeptor Pharma Corporation, priority 2007, published 2009)",
  "target": "T1, hASIC1a (Homo sapiens, UniProt P78348)",
  "T1 construct": "expressed in transfected cells",
  "T1 sequence (P78348 1-528)": "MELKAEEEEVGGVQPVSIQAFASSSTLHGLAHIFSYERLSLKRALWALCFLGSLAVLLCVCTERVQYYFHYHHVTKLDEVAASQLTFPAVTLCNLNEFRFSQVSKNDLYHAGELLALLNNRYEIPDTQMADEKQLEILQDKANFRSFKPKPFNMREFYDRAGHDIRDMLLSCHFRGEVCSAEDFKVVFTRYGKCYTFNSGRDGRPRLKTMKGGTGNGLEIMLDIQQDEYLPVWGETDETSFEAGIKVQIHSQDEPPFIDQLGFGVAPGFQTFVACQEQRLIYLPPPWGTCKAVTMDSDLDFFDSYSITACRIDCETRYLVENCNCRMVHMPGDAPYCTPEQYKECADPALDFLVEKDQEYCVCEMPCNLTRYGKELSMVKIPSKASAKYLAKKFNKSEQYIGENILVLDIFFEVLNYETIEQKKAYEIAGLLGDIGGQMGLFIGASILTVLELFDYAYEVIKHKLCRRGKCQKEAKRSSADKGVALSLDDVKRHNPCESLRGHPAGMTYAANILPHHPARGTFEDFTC",
  "assay": "Fluorescent calcium dye (Fluo-4-NW) assay in cells expressing hASIC1a (Example 1)",
  "assay_type": "cell-based",
  "conditions": "CHO cells stably expressing hASIC1a, mild acidic buffer, increasing concentrations; FIGS. 1A-1C",
  "description": "ASIC1a expressing CHO cells are grown in culture medium (DMEM with 10% FBS), in polystyrene culture flasks ([…]) at 37° C. in a humidified atmosphere of 5% CO2. Confluency of cells should be 70-90% on day of plating. Cells are rinsed with 10 ml of PBS and cells are re-suspended by addition of culture medium and trituration with a 25 ml pipette. The cells are seeded at a density of approximately 10^4 cells/ml (50 μl/well and then brought to a total volume of 150 μl/well with culture medium, following 30 minutes incubation) in black-walled, clear bottom, 96-well plates pre-treated with poly-D-lysine (from BD Bioscience). Plated cells were allowed to proliferate for 48-72 h before loading with dye. Fluo-4-NW (500 μg, DiscoveRX) is dissolved in 110 μl DMSO. The Fluo-4-NW stock solution (1000×) is diluted with the assay buffer. A water soluble stock solution (100×) of probenicid (DiscoveRX) and a stock solution (1000×) of pluronic acid (P-127, Molecular Probes) are also added in the loading buffer containing Fluo-4NW dye. The culture medium is aspirated from the wells, and 100 μl of the Fluo-4-NW loading solution is added to each well. The cells are incubated at 37° C. for 30 min. followed by 30 min. incubation at room temperature. The assay buffer contains 90 mM NaCl, 5 mM KCl, 4 mM CaCl2, 0.8 mM MgSO4, 50 mM NMDG, 5 mM Glucose-D, 10 mM HEPES, pH 7.4. After the loading time, the loading buffer is not removed and the fluorescence is measured in FlexStation™ (Molecular Devices, USA), or any other suitable equipment known to the skilled in the art. Temperature: 25° C. First addition: 50 μl test solution at a rate of 26 μl/sec and a starting height of 125 μl. […] Reading intervals: pre-incubation—120 sec. antagonist phase, addition of MES at 145 sec. and reading time with agonist 100 sec (total run time of 240 sec.). Fluorescence obtained after stimulation is corrected for the mean basal fluorescence (in modified Assay Buffer). […] Gated-channel activity was determined by measuring intracellular calcium variation using a fluorescent calcium dye (Fluo-4-NW).",
  "data": [
    {"molecule": "Cc1cc(OC2CCN(Cc3ccccc3)CC2)c2cc(O)ccc2n1", "note": "[Compound 13, 4-(1-benzylpiperidin-4-yloxy)-2-methylquinolin-6-ol]", "values": [
      {"measurement": "inhibition of acid-induced hASIC1a activity (intracellular calcium variation)", "value": "dose-dependently inhibited"}
    ]}
  ]
}
